Data: patent publication US10189845B2, “4,6-substituted-pyrazolo[1,5-a]pyrazines as janus kinase inhibitors” (ARRAY BIOPHARMA INC., priority 2014, dated 2019)
Read-outs that look alike come from different tables or passages of the source.

How the values were obtained:
Assay type in all cases: biochemical
JAK2 = JAK2 (Homo sapiens (Human), UniProt O60674); assay: JAK2 Inhibition Assay (Example C, Omnia kinase fluorescence peptide substrate assay); conditions: JAK2 Enzyme IC50 1 mM ATP, averaged IC50 ranges
Chain of JAK2 (O60674 whole entry): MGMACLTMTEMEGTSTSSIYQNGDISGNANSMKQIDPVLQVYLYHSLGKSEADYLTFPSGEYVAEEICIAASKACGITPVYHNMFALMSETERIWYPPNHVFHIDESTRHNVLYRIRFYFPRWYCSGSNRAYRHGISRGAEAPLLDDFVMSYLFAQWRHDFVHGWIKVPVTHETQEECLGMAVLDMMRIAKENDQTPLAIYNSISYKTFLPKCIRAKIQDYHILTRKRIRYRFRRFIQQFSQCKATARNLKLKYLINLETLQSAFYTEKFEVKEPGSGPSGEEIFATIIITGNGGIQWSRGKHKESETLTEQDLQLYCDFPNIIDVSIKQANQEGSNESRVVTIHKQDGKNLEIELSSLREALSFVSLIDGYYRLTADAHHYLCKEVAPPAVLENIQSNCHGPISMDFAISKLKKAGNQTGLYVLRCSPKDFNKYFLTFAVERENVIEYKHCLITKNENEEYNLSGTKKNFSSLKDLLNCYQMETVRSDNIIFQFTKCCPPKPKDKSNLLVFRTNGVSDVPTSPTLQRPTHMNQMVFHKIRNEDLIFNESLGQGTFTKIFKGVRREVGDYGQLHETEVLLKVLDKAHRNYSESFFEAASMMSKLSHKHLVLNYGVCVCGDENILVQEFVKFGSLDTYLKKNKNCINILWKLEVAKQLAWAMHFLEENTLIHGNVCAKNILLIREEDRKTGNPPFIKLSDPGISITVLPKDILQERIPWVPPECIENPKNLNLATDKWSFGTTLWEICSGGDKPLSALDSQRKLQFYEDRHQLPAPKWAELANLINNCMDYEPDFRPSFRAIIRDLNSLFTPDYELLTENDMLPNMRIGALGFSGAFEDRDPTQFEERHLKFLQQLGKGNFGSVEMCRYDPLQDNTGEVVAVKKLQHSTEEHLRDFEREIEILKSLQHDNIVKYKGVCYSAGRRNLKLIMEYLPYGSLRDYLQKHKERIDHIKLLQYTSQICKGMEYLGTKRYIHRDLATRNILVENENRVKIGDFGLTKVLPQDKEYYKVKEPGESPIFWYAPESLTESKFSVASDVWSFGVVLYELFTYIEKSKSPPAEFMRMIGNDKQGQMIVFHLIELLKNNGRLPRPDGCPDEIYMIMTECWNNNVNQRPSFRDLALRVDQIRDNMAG
Text: (§1) The assays described in Examples A, B, C and D for the determination of Tyk2, JAK1, JAK2 and JAK3 kinase activity, respectively, utilized the Omnia® Kinase fluorescence peptide substrate-based technology (Invitrogen). The specific components of the assay mixture are described in Examples A, B, C and D. In these assays, Mg^2+ is chelated upon phosphorylation of the Omnia peptide by the kinase to form a bridge between the chelation-enhanced fluorophore Sox and the phosphate, resulting in an increase in fluorescence emission at 485 nm when excited at […]. The reactions were therefore read at excitation 360 nm and emission was measured at 485 nm every 50 seconds for 45 minutes using a PerkinElmer EnVision Multilabel Plate Reader.
(§2) The final buffer conditions for Tyk2, JAK1, JAK2, and JAK3 assays were as follows: 25 mM HEPES, pH 7.4, 10 mM MgCl2, 0.01% Triton X-100 and 1 mM DTT.
(§3) Two-μL aliquots of these were transferred to a fresh plate for a ten-fold intermediate dilution with assay buffer. Five-μL aliquots of the diluted compounds were then transferred to 20-μL of assay mixtures described in Examples A, B, C and D for a final concentration of DMSO of 2%. […] For each plate, percent of control (POC) values were calculated for each well according to the following equation: […]
(§4) IC50's were estimated from the POC's using a standard 4-parameter logistic model:
(§5) The IC50 is defined as the concentration of inhibitor at which the POC equals 50 for the fitted curve.
(§6) Compounds of Formula I were screened for their ability to inhibit JAK2 using the general enzyme inhibition assay method, in which the assay mixture contained 1 mM ATP, 10 μM Omnia® Y7 peptide (Catalog # IVGN KNZ3071C, Invitrogen Corporation, Carlsbad, Calif.) and 4 nM JAK2 in a total volume of 25 μL. JAK2 was purchased from Invitrogen Corporation, Carlsbad, Calif. (catalog # IVGN PV4288).

JAK1 = JAK1 (Homo sapiens (Human), UniProt P23458); assay: JAK1 Inhibition Assay (Example B, Omnia kinase fluorescence peptide substrate assay)
Chain of JAK1 (P23458 whole entry): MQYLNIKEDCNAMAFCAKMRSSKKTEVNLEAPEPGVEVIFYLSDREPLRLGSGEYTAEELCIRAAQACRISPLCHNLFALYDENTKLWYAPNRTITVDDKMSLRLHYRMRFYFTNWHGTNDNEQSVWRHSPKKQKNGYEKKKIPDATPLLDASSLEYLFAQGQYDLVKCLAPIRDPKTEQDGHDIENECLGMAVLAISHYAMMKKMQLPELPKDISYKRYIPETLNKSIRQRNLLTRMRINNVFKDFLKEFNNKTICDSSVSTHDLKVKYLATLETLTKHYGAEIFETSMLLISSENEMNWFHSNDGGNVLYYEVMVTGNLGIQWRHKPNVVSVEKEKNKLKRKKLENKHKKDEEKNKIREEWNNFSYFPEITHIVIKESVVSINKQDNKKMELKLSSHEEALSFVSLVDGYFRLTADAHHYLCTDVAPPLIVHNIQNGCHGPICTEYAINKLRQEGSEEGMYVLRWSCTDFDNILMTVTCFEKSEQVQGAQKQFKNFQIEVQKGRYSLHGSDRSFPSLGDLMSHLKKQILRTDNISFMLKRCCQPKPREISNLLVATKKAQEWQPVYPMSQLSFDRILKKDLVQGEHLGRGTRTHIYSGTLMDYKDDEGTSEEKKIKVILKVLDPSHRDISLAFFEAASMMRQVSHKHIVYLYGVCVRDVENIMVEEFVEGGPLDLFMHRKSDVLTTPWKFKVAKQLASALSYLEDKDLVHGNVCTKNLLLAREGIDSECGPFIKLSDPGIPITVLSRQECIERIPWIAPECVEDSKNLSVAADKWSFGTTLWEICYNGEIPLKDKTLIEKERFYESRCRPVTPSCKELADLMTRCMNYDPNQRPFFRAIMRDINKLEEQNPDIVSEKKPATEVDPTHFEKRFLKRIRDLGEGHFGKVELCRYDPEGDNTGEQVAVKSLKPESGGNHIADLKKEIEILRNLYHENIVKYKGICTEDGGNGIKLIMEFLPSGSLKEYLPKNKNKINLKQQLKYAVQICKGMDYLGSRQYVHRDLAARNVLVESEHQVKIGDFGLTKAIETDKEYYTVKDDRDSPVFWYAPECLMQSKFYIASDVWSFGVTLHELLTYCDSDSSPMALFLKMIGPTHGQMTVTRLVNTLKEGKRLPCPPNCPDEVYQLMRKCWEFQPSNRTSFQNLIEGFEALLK
Text: as §1, §2, §3, §4, §5
as §6, with “JAK1” for “JAK2”, “8” for “10”, “Y12” for “Y7”, “KPZ3121C;” for “KNZ3071C,”, “12.5” for “4”, “PV4775).” for “PV4288).”

Human Tyk2 kinase domain = Human Tyk2 kinase domain (Homo sapiens (Human), UniProt P29597); assay: Tyk2 Inhibition Assay (Example A, Omnia kinase fluorescence peptide substrate assay); conditions: TYK2 Enzyme IC50 1 mM ATP, averaged IC50 ranges
Chain of Human Tyk2 kinase domain (P29597 886-1187): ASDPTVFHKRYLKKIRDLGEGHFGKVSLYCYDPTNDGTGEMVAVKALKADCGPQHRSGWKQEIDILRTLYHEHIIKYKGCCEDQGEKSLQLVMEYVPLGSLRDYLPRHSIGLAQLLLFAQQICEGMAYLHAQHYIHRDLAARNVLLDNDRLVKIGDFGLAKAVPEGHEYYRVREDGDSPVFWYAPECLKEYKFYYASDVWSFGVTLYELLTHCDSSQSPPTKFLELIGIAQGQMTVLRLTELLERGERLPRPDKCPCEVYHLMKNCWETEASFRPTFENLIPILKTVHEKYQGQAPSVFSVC
Text: as §1, §2, §3, §4, §5
Compounds of Formula I were screened for their ability to inhibit Tyk2 using the general enzyme inhibition assay method, in which the assay mixture contained 1 mM ATP, 8 μM Omnia Y12 peptide (Catalog # IVGN KPZ3121C; Invitrogen Corporation, Carlsbad, Calif.) and 1 nM Tyk2 in a total volume of 25 μL. Human Tyk2 kinase domain, comprising amino acids 886 to 1187 with 10 additional histidine residues (histidine tag) on the carboxy terminus, was expressed and purified from bacculovirus in-house at Array BioPharma Inc. (Boulder, Colo.). The histidine tag was cleaved after purification using standard conditions.

JAK3 = JAK3 (Homo sapiens (Human), UniProt P52333); assay: JAK3 Inhibition Assay (Example D, Omnia kinase fluorescence peptide substrate assay)
Chain of JAK3 (P52333 whole entry): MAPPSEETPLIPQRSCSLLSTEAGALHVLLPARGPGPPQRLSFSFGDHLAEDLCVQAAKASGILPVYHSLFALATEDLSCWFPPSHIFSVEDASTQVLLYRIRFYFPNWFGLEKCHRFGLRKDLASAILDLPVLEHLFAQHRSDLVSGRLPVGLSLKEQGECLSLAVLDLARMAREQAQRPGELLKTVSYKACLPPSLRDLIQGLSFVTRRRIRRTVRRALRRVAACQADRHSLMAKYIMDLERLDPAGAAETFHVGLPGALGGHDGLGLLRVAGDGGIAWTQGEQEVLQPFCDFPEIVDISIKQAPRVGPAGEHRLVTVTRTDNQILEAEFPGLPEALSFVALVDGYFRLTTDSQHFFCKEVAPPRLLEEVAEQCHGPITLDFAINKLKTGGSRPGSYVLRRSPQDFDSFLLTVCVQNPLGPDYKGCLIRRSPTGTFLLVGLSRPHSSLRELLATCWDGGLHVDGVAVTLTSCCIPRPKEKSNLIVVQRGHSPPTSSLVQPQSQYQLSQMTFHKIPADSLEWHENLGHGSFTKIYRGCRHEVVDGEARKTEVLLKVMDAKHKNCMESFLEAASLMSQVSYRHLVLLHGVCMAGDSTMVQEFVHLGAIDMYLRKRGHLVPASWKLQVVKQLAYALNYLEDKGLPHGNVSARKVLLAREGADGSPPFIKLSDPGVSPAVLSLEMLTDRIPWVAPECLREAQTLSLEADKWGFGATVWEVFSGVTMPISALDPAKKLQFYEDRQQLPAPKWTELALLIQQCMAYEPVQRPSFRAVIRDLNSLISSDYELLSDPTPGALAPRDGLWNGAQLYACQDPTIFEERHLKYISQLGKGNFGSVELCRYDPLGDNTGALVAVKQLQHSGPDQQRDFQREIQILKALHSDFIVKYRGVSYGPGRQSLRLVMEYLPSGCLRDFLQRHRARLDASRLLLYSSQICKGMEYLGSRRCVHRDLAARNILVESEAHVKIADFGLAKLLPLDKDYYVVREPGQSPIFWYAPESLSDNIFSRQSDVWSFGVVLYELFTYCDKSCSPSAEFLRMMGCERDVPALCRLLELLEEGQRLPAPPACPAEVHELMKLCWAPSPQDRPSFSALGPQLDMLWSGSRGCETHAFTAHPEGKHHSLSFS
Text: as §1, §2, §3, §4, §5
as §6, with “JAK3” for “JAK2”, “2” for “4”, “PV4080).” for “PV4288).”

[1] = JAK1 Enzyme IC50 1 mM ATP, 1 mM ATP, averaged IC50 ranges

SMILES	IC50 (JAK2)	IC50 (JAK1; [1])	IC50 (Human Tyk2 kinase domain)	IC50 (JAK3)	IC50 (JAK1)
CCC(CC)n1cc(-c2nc(-c3cnn(CCN4CC(F)C4)c3)cn3nccc23)cn1 [Example 138, 6-(1-(2-(3-fluoroazetidin-1-yl)ethyl)-1H-pyrazol-4-yl)-4-(1-(pentan-3-yl)-1H-pyrazol-4-yl)pyrazolo[1,5-a]pyrazine]	10 to 100 nM		10 to 100 nM	1000 to 10000 nM	1000 to 10000 nM
CCC(CC)n1cc(-c2nc(-c3cnn(CC(C)(O)CO)c3)cn3nccc23)cn1 (centres unmarked) [Example 60, 2-methyl-3-(4-(4-(1-(pentan-3-yl)-1H-pyrazol-4-yl)pyrazolo[1,5-a]pyrazin-6-yl)-1H-pyrazol-1-yl)propane-1,2-diol]	10 to 100 nM		10 to 100 nM	1000 to 10000 nM	1000 to 10000 nM
CCC(CC)n1cc(-c2nc(-c3cnn(CC(=O)NC(C)C)c3)cn3nccc23)cn1 [Example 97, N-isopropyl-2-(4-(4-(1-(pentan-3-yl)-1H-pyrazol-4-yl)pyrazolo[1,5-a]pyrazin-6-yl)-1H-pyrazol-1-yl)acetamide]	100 to 1000 nM		10 to 100 nM	1000 to 10000 nM	100 to 1000 nM
CCC(CC)n1cc(-c2nc(-c3cnn(CCCS(C)(=O)=O)c3)cn3nccc23)cn1 [Example 7, 6-(1-(3-(methylsulfonyl)propyl)-1H-pyrazol-4-yl)-4-(l-(pentan-3-yl)-1H-pyrazol-4-yl)pyrazolo[1,5-a]pyrazine]	10 to 100 nM		10 to 100 nM	1000 to 10000 nM	1000 to 10000 nM
CCC(CC)n1cc(-c2nc(-c3cnn(CCO)c3)cn3nccc23)cn1 [Example 20, 2-(4-(4-(l-(pentan-3-yl)-1H-pyrazol-4-yl)pyrazolo[1,5-a]pyrazin-6-yl)-1H-pyrazol-1-yl)ethanol]	10 to 100 nM		10 to 100 nM	1000 to 10000 nM	10 to 100 nM
CCC(CC)n1cc(-c2nc(-c3cnn([C@@H](C)[C@@H](C)O)c3)cn3nccc23)cn1 (single isomer, unassigned) [Example 157]	10 to 100 nM	100 to 1000 nM	10 to 100 nM	1000 to 10000 nM	
CCC(CC)n1cc(-c2nc(-c3cnn(C[C@@H](O)CN4CC(OC)C4)c3)cn3nccc23)cn1 [Example 104, (S)-1-(3-methoxyazetidin-1-yl)-3-(4-(4-(1-(pentan-3-yl)-1H-pyrazol-4-yl)pyrazolo[1,5-a]pyrazin-6-yl)-1H-pyrazol-1-yl)propan-2-ol]	10 to 100 nM	1000 to 10000 nM	10 to 100 nM	1000 to 10000 nM	
CCC(CC)n1cc(-c2nc(-c3cnn(CC4(CO)COC4)c3)cn3nccc23)cn1 [Example 16, (3-((4-(4-(1-(pentan-3-yl)-1H-pyrazol-4-yl)pyrazolo[1,5-a]pyrazin-6-yl)-1H-pyrazol-1-yl)methyl)oxetan-3-yl)methanol]	10 to 100 nM		10 to 100 nM	1000 to 10000 nM	10 to 100 nM
CCC[C@H](C)n1cc(-c2nc(-c3cnn(C[C@H](O)CO)c3)cn3nccc23)cn1 [Example 86, (S)-3-(4-(4-(1-((S)-pentan-2-yl)-1H-pyrazol-4-yl)pyrazolo[1,5-a]pyrazin-6-yl)-1H-pyrazol-1-yl)propane-1,2-diol]	10 to 100 nM	100 to 1000 nM		1000 to 10000 nM	
CCC(CC)n1cc(-c2nc(-c3cnn([C@H]4CC[C@H](O)CC4)c3)cn3nccc23)cn1 [Example 118, trans-4-(4-(4-(1-(pentan-3-yl)-1H-pyrazol-4-yl)pyrazolo[1,5-a]pyrazin-6-yl)-1H-pyrazol-1-yl)cyclohexanol]	< 10 nM		10 to 100 nM		10 to 100 nM
CCC(CC)n1cc(-c2nc(-c3cnn([C@H]4CC[C@@H](O)CC4)c3)cn3nccc23)cn1 [Example 121, cis-4-(4-(4-(1-(pentan-3-yl)-1H-pyrazol-4-yl)pyrazolo[1,5-a]pyrazin-6-yl)-1H-pyrazol-1-yl)cyclohexanol]	10 to 100 nM		10 to 100 nM		100 to 1000 nM

More lines, now with the values ahead:

IC50 (JAK2)	IC50 (JAK1; [1])	IC50 (Human Tyk2 kinase domain)	IC50 (JAK3)	IC50 (JAK1)	SMILES
< 10 nM	100 to 1000 nM	10 to 100 nM	100 to 1000 nM		CC[C@@H]1CCC[C@@H]1n1cc(-c2nc(-c3cnn(C[C@@H](O)CO)c3)cn3nccc23)cn1 (single isomer, unassigned) [Example 207]
10 to 100 nM		10 to 100 nM	1000 to 10000 nM	1000 to 10000 nM	CCC(CC)n1cc(-c2nc(-c3cnn(C4CN(C(=O)CN)C4)c3)cn3nccc23)cn1 [Example 186, 2-amino-1-(3-(4-(4-(1-(pentan-3-yl)-1H-pyrazol-4-yl)pyrazolo[1,5-a]pyrazin-6-yl)-1H-pyrazol-1-yl)azetidin-1-yl)ethanone]
10 to 100 nM	10 to 100 nM	10 to 100 nM	1000 to 10000 nM		CCC(CC)n1cc(-c2nc(-c3cnn([C@H](C)[C@H](C)O)c3)cn3nccc23)cn1 (single isomer, unassigned) [Example 158]
100 to 1000 nM	1000 to 10000 nM	100 to 1000 nM	1000 to 10000 nM		CC[C@H](n1cc(-c2nc(-c3cnn(C[C@@H](O)CO)c3)cn3nccc23)cn1)C(C)(F)F [Example 198, (R)-3-(4-(4-(1-((S)-2,2-difluoropentan-3-yl)-1H-pyrazol-4-yl)pyrazolo[1,5-a]pyrazin-6-yl)-1H-pyrazol-1-yl)propane-1,2-diol]
10 to 100 nM		10 to 100 nM	1000 to 10000 nM	100 to 1000 nM	CCC(CC)n1cc(-c2nc(-c3cnn([C@H]4C[C@@H](C(=O)N(C)C)C4)c3)cn3nccc23)cn1 [Example 170, (1s,3s)-N,N-dimethyl-3-(4-(4-(1-(pentan-3-yl)-1H-pyrazol-4-yl)pyrazolo[1,5-a]pyrazin-6-yl)-1H-pyrazol-1-yl)cyclobutanecarboxamide]
100 to 1000 nM			1000 to 10000 nM	100 to 1000 nM	CCC(CC)n1cc(-c2nc(-c3cnn(C4CN(C(=O)C(C)(C)O)C4)c3)cn3nccc23)cn1 [Example 176, 2-hydroxy-2-methyl-1-(3-(4-(4-(1-(pentan-3-yl)-1H-pyrazol-4-yl)pyrazolo[1,5-a]pyrazin-6-yl)-1H-pyrazol-1-yl)azetidin-1-yl)propan-1-one]
100 to 1000 nM		100 to 1000 nM			CCC(CC(F)(F)F)n1cc(-c2nc(-c3cnn(C[C@@H](O)CO)c3)cn3nccc23)cn1 (single isomer, unassigned) [Example 210]
10 to 100 nM		< 10 nM		100 to 1000 nM	CCC(CC)n1cc(-c2nc(-c3cnn([C@H]4C[C@@](C)(O)C4)c3)cn3nccc23)cn1 [Example 162, (1s,3s)-1-methyl-3-(4-(4-(1-(pentan-3-yl)-1H-pyrazol-4-yl)pyrazolo[1,5-a]pyrazin-6-yl)-1H-pyrazol-1-yl)cyclobutanol]
10 to 100 nM			1000 to 10000 nM	100 to 1000 nM	CCC(CC)n1cc(-c2nc(-c3cnn(C4CN(C(=O)C5(O)CC5)C4)c3)cn3nccc23)cn1 [Example 177, (1-hydroxycyclopropyl)(3-(4-(4-(1-(pentan-3-yl)-1H-pyrazol-4-yl)pyrazolo[1,5-a]pyrazin-6-yl)-1H-pyrazol-1-yl)azetidin-1-yl)methanone]
10 to 100 nM		10 to 100 nM			CC[C@H](CC(F)(F)F)n1cc(-c2nc(-c3cnn(C[C@@H](O)CO)c3)cn3nccc23)cn1 (single isomer, unassigned) [Example 209]
